Measured values: patent EP0638573A1, “Crystalline hydrates of cephalosporin and process for preparation thereof” (LUCKY LTD., priority 1993, dated 1995)
Converted amounts (≈) assume the structure as drawn. Like-named read-outs stand apart in the source and are kept apart here.

Assays:
[1] = tested on: Acinetobacter calcoaceticus ATCC15473; test: MIC, doubling dilution method (NCCLS), Muller-Hinton agar; format: cell-based; conditions: 20 hours at 37°C
Protocol: (§1) Antibiotic activities of the crystalline compound obtained in Example 1 were evaluated by way of determining the minimum inhibitory concentration(MIC) for the microorganisms listed in Table 2 in vitro.
(§2) The […] was determined in accordance with the doubling dilution method(NCCLS). After the test compound was dispersed in a Muller-Hinton agar medium, the medium was inoculated with 2µl of a test strain having 10⁷ CFU/ml and, then, incubated for 20 hours at 37°C.
(§3) For comparison, antibiotic abilities of the amorphous formula(I) cephalosporin obtained in Preparation Example were also determined as above; and are shown in Table 2.

[2] = tested on: Bacillus cereus ATCC11778; test: as above; format: cell-based; conditions: 20 hours at 37°C
Protocol: as §1, §2, §3

[3] = tested on: Citrobacter freundii ATCC8090; test: as above; format: cell-based; conditions: 20 hours at 37°C
Protocol: as §1, §2, §3

[4] = tested on: Enterobacter aerogenes ATCC29751; test: as above; format: cell-based; conditions: 20 hours at 37°C
Protocol: as §1, §2, §3

[5] = tested on: Enterobacter cloacae ATCC27508; test: as above; format: cell-based; conditions: 20 hours at 37°C
Protocol: as §1, §2, §3

[6] = tested on: Escherichia coli ATCC10536; test: as above; format: cell-based; conditions: 20 hours at 37°C
Protocol: as §1, §2, §3

[7] = tested on: Escherichia coli ATCC25922; test: as above; format: cell-based; conditions: 20 hours at 37°C
Protocol: as §1, §2, §3

[8] = tested on: Klebsiella pneumoniae ATCC10031; test: as above; format: cell-based; conditions: 20 hours at 37°C
Protocol: as §1, §2, §3

[9] = tested on: Micrococcus luteus ATCC9341; test: as above; format: cell-based; conditions: 20 hours at 37°C
Protocol: as §1, §2, §3

[10] = tested on: Morganella morganii ATCC8076h; test: as above; format: cell-based; conditions: 20 hours at 37°C
Protocol: as §1, §2, §3

[11] = tested on: Proteus mirabilis ATCC25933; test: as above; format: cell-based; conditions: 20 hours at 37°C
Protocol: as §1, §2, §3

[12] = tested on: Proteus vulgaris ATCC6059; test: as above; format: cell-based; conditions: 20 hours at 37°C
Protocol: as §1, §2, §3

[13] = tested on: Providencia rettgeri ATCC9250; test: as above; format: cell-based; conditions: 20 hours at 37°C
Protocol: as §1, §2, §3

[14] = tested on: Pseudomonas aeruginosa ATCC10145; test: as above; format: cell-based; conditions: 20 hours at 37°C
Protocol: as §1, §2, §3

[15] = tested on: Pseudomonas aeruginosa ATCC25619; test: as above; format: cell-based; conditions: 20 hours at 37°C
Protocol: as §1, §2, §3

[16] = tested on: Pseudomonas aeruginosa ATCC27853; test: as above; format: cell-based; conditions: 20 hours at 37°C
Protocol: as §1, §2, §3

[17] = tested on: Salmonella typhimurium ATCC14028; test: as above; format: cell-based; conditions: 20 hours at 37°C
Protocol: as §1, §2, §3

[18] = tested on: Serratia marcescens ATCC27117; test: as above; format: cell-based; conditions: 20 hours at 37°C
Protocol: as §1, §2, §3

[19] = tested on: Shigella flexneri ATCC11836; test: as above; format: cell-based; conditions: 20 hours at 37°C
Protocol: as §1, §2, §3

[20] = tested on: Shigella sonnei ATCC11060; test: as above; format: cell-based; conditions: 20 hours at 37°C
Protocol: as §1, §2, §3

[21] = tested on: Staphylococcus aureus ATCC10537; test: as above; format: cell-based; conditions: 20 hours at 37°C
Protocol: as §1, §2, §3

[22] = tested on: Staphylococcus aureus ATCC6538p; test: as above; format: cell-based; conditions: 20 hours at 37°C
Protocol: as §1, §2, §3

[23] = tested on: Streptococcus epidermidis ATCC12228; test: as above; format: cell-based; conditions: 20 hours at 37°C
Protocol: as §1, §2, §3

[24] = tested on: Streptococcus faecalis ATCC29212; test: as above; format: cell-based; conditions: 20 hours at 37°C
Protocol: as §1, §2, §3

[25] = Heat-stability test: storage at 50°C, decomposition by liquid chromatography; format: physicochemical
Protocol: The crystalline hydrate of the compound obtained in Example 1 and the amorphous cephalosporin obtained in Preparation Example were stored at 50°C. After the respective periods of one week and two weeks, the heat stability of the compounds was measured by determining their level of decomposition through the use of liquid chromatography.

[26] = tested on: Bacillus megaterium ATTCC9885; test: MIC, doubling dilution method (NCCLS), Muller-Hinton agar; format: cell-based; conditions: Priestia megaterium, 20 hours at 37°C
Protocol: as §1, §2, §3

Compound | MIC [1] | MIC [3] | MIC [4] | MIC [6] | MIC [7] | MIC [8] | MIC [12] | MIC [15] | MIC [16] | MIC [17] | MIC [18] | MIC [20] | Decomposition Rate ([25]; storage period (50°C): 0) | Decomposition Rate ([25]; storage period (50°C): 1 week) | Decomposition Rate ([25]; storage period (50°C): 2 week) | further results
Cc1c(N)nc(SCC2=C(C(=O)[O-])N3C(=O)C(NC(=O)/C(=N\OC(C)(C)C(=O)O)c4csc(N)n4)[C@H]3SC2)[n+](N)c1N (stereo partly shown) [Amorphous Compound, 7-[(Z)-2-(2aminothiazole-4-yl)-2-(2-carboxyprop-2-oxyimino)acetamido]-3-(5-methyl-1,4,6-triamino-pyrimidinium-2-yl)thiomethyl-3-cephem-4-carboxylate, reference compound] | 4 µg/mL (≈ 6.26 µM) | 0.063 µg/mL (≈ 0.0986 µM) | 1 µg/mL (≈ 1.57 µM) | 0.063 µg/mL (≈ 0.0986 µM) | 0.13 µg/mL (≈ 0.204 µM) | 0.063 µg/mL (≈ 0.0986 µM) | 0.063 µg/mL (≈ 0.0986 µM) | 2 µg/mL (≈ 3.13 µM) | 2 µg/mL (≈ 3.13 µM) | 0.13 µg/mL (≈ 0.204 µM) | 0.13 µg/mL (≈ 0.204 µM) | 0.063 µg/mL (≈ 0.0986 µM) | 0% | 4.2% | 5.2% | MIC [2]: 128 µg/mL (≈ 200 µM); MIC [5]: 0.016 µg/mL (≈ 0.0251 µM); MIC [9]: 0.5 µg/mL (≈ 0.783 µM); MIC [10]: <=0.008 mcg/ml; MIC [11]: 0.031 µg/mL (≈ 0.0485 µM); MIC [13]: <=0.008 mcg/ml; MIC [14]: 2 µg/mL (≈ 3.13 µM); MIC [19]: 0.031 µg/mL (≈ 0.0485 µM); MIC [21]: 2 µg/mL (≈ 3.13 µM); MIC [22]: 4 µg/mL (≈ 6.26 µM); MIC [23]: 2 µg/mL (≈ 3.13 µM); MIC [24]: >128 µg/mL
Cc1c(N)nc(SCC2=C(C(=O)[O-])N3C(=O)C(NC(=O)/C(=N\OC(C)(C)C(=O)O)c4csc(N)n4)[C@H]3SC2)[n+](N)c1N (stereo partly shown) [Test Compound, 7-[(Z)-2-(2-aminothiazole-4-yl)-2-(2-carboxyprop-2-oxyimino)acetamido]-3-(5-methyl-1,4,6-triaminopyrimidinium-2-yl)thiomethyl-3-cephem-4-carboxylate] | 1 µg/mL (≈ 1.57 µM) | 0.016 µg/mL (≈ 0.0251 µM) | 0.25 µg/mL (≈ 0.391 µM) | 0.031 µg/mL (≈ 0.0485 µM) | 0.031 µg/mL (≈ 0.0485 µM) | 0.016 µg/mL (≈ 0.0251 µM) | 0.031 µg/mL (≈ 0.0485 µM) | 0.5 µg/mL (≈ 0.783 µM) | 0.5 µg/mL (≈ 0.783 µM) | 0.063 µg/mL (≈ 0.0986 µM) | 0.063 µg/mL (≈ 0.0986 µM) | 0.031 µg/mL (≈ 0.0485 µM) | 0% | 0.4% | 0.9% | MIC ([2]; Bacillus cereus, ATCC11778, 20 h, read-out: MIC): 64 µg/mL (≈ 100 µM); MIC [26]: 0.13 µg/mL (≈ 0.204 µM); MIC ([5]; Enterobacter cloacae, ATCC27508, 20 h, read-out: MIC): ≤ 0.008 µg/mL; MIC ([9]; Micrococcus luteus, ATCC9341, 20 h, read-out: MIC): 0.25 µg/mL (≈ 0.391 µM); MIC ([10]; read-out: MIC): ≤ 0.008 µg/mL; MIC ([11]; Proteus mirabilis, ATCC25933, 20 h, read-out: MIC): 0.016 µg/mL (≈ 0.0251 µM); MIC ([13]; read-out: MIC): ≤ 0.008 µg/mL; MIC ([14]; Pseudomonas aeruginosa, ATCC10145, 20 h, read-out: MIC): 1 µg/mL (≈ 1.57 µM); MIC ([19]; Shigella flexneri, ATCC11836, 20 h, read-out: MIC): 0.016 µg/mL (≈ 0.0251 µM); MIC ([21]; read-out: MIC): 2 µg/mL (≈ 3.13 µM); MIC ([22]; read-out: MIC): 4 µg/mL (≈ 6.26 µM); MIC ([23]; Streptococcus, ATCC12228, 20 h, read-out: MIC): 1 µg/mL (≈ 1.57 µM); MIC ([24]; Enterococcus faecalis, read-out: MIC): > 128 µg/mL
